From ChEMBL document CHEMBL3297704, “Theophylline-7-acetic acid derivatives with amino acids as anti-tuberculosis agents” (Bioorg Med Chem Lett, 2014)
pIC50: −log10 of the molar value. ≈ marks a conversion by molar mass, not a printed value. Structures can show the parent of a compound that is named as a salt.

Columns and labels:
[1] = system: Mycobacterium tuberculosis; experiment: Antituberculosis activity against Mycobacterium tuberculosis H37Rv assessed as inhibition of bacterial growth after 45 days; type: functional
HEK-293T = experiment: Cytotoxicity against human 293T cells after 72 hrs by MTT assay; type: cell-based

Row | Compound | MIC [1] [µM] | pIC50 (HEK-293T)
1 | CC[C@@H](CO)NCCN[C@@H](CC)CO [ETHAMBUTOL HYDROCHLORIDE] | 7.22 | 
2 | C[C@H](NC(=O)Cn1cnc2c1c(=O)n(C)c(=O)n2C)C(=O)O | 0.65 (≈ 0.201 µg/mL) | < 3.40
3 | Cn1c(=O)c2c(ncn2CC(=O)N[C@@H](Cc2cc3ccccc3[nH]2)C(=O)O)n(C)c1=O | 0.47 (≈ 0.199 µg/mL) | < 3.40
4 | COC(=O)[C@H](Cc1cc2ccccc2[nH]1)NC(=O)Cn1cnc2c1c(=O)n(C)c(=O)n2C | 0.46 (≈ 0.202 µg/mL) | < 3.40
